Measured values published in patent US20130267594A1, “PROLYL HYDROXYLASE INHIBITORS AS RADIATION MITIGATORS AND RADIATION PROTECTORS” (priority 2010, published 2013).

Experiments:
[1] = target: T1, KDM4D (Homo sapiens, UniProt Q6B0I6); assay: KDM4D demethylation of H3K9me3 in transfected cells, immunofluorescent staining (FIG. 2); format: cell-based
T1 construct: expressed in transfected cells
T1 sequence (Q6B0I6 1-523): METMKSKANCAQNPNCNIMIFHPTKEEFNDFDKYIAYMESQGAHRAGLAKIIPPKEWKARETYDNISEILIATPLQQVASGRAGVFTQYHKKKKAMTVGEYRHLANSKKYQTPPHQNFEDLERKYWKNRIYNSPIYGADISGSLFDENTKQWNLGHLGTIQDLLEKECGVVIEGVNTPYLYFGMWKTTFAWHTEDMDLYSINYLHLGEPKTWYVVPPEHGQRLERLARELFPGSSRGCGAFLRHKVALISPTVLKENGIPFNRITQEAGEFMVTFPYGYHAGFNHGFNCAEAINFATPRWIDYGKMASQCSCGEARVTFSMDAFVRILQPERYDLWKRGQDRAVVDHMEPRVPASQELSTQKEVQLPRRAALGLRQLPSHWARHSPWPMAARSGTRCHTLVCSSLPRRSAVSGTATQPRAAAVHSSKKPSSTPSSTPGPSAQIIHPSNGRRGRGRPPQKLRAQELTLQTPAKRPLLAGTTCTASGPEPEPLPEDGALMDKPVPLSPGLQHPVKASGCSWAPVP
Procedure: HeLa cells were transiently transfected with either vector or KDM4D, followed by incubation with either solvent (PBS, control) or DMOG (100 μM) and then visualized by fluorescent microscopy.
Immunofluorescence: Cells (on cover slides) were fixed in phosphate-buffered saline (PBS) containing 2% paraformaldehyde. Cells were permeabilized in 0.2% Triton X-100 in PBS for 5mins, and then blocked in fetal bovine serum for 20 min, Primary antibodies were prepared in 10% fetal bovine serum supplemented with 0.2% saponin. After a 1 h incubation with primary antibody, cells were washed three times with 0.2% Tween-20 and incubated for 1 h in secondary antibody (conjugated to either Texas Red or FITC; Santa Cruz Biotechnology, CA). Slides were mounted with Fluoromount-G (Southern Biotech, AL). […]
KDMs utilize an Fe-oxo intermediate to form an unstable hydroxy-methyl intermediate, which spontaneously releases formaldehyde, leading to removal of a single methyl group. […] In FIG. 2B, Murine Embryonic Fibroblasts (MEFs) were transfected with empty vector or KDM4D, which specifically demethylates H3K9me3, and the levels of chromatin associated H3K9me3 measured by immunofluorescent staining using an anti-H3K9me3 antibody. In untreated cells, high levels of H3K9me3 were detected, and transient expression of the H3K9me3 demethylase KDM4D essentially demethylated the entire nuclear H3K9me3 signal. […]

[2] = tested on: Hif1α; format: cell-based, mouse

COC(=O)CNC(=O)C(=O)OC [DMOG, dimethyloxalylglycine]
ability of KDM4D to demethylate H3K9me3 ([1]; cells expressing KDM4D, DMOG 100 μM, anti-H3K9me3 staining): inhibited the ability of KDM4D to demethylate H3K9me3 | level of expression of the KDM4D enzyme ([1]; control experiments to FIG. 2): did not alter the level of expression of the KDM4D enzyme | ability to increase Hif1α levels in SuvDKO MEFs [2]: not altered
